Assay results published in patent US5710123A, “Peptide inhibitors of selectin binding” (Centocor, Inc., priority 1995, dated 1998).
Where a SMILES comes first, the peptide text is derived from it. Bridges are numbered along the chain shown (N, C = ends). Where no end group is shown, it is not given here.

Target: T1, P-selectin (Homo sapiens, UniProt P16109)
T1 construct: from tissue; host or cells: outdated human platelet packs from a blood bank
T1 sequence (P16109 42-830): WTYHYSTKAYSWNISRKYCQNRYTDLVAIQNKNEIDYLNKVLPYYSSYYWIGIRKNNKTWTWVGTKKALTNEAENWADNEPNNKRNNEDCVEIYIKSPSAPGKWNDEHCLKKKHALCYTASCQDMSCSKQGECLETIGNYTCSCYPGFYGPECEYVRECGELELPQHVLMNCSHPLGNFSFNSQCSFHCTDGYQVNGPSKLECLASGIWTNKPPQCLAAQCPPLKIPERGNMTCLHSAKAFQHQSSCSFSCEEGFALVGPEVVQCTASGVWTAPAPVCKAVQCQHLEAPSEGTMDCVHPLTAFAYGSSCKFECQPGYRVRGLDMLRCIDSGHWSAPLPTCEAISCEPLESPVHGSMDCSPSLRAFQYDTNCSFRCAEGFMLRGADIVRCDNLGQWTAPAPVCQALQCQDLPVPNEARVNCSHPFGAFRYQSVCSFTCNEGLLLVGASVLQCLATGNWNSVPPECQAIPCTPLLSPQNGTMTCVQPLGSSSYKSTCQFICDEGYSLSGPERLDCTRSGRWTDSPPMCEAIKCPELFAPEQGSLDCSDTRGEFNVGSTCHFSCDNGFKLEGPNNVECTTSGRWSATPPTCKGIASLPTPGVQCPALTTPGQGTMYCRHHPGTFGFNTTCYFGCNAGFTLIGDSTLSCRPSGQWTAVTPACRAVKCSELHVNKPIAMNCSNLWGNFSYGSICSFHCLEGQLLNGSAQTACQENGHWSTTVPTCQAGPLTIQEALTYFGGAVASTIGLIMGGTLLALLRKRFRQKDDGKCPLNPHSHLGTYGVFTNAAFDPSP
Experiment: Inhibition of binding of human neutrophils to P-selectin (neutrophil adhesion to purified immobilized P-selectin, myeloperoxidase readout)
Format: cell-based
Settings: P-selectin purified from human platelets, plated at 5 micrograms/mL, peptides tested 1.0 mM to 0.001 mM
Text: Peptides can be screened for their ability to inhibit adhesion to cells, for example, neutrophil adhesion to purified P-selectin immobilized on plastic wells, using the assay described by Geng, et al., Nature 343, 757-760 1990). Human neutrophils are isolated from heparinized […] blood by density gradient centrifugation on Mono-Poly resolving media, Flow Laboratories. Neutrophil suspensions are greater than 98% pure and greater than 95% viable by trypan blue exclusion. For adhesion assays, neutrophils are suspended at a concentration of 2×10^6 cells/mL in Hanks' balanced salt solution containing 1.26 mM Ca^2+ and 0.81 mM Mg^2+ (HBSS, Gibco) with […] human serum albumin (HBSS/HSA). Adhesion assays are conducted in triplicate in 96-well microtiter plates, Corning, incubated at 4° C. overnight with 50 microliters of various protein solutions. P-selectin is isolated from human platelet lysates by immunoaffinity chromatography on antibody S12-Sepharose™ and ion-exchange chromatography on a Mono-Q™ column (FLPC, Pharmacia Fine Chemicals), as follows. Outdated human platelet packs (100 units) obtained from a blood bank and stored at 4° C. are pooled, adjusted to 5 mM EDTA at pH 7.5, centrifuged at 4,000 rpm for 30 minutes in 1 liter bottles, then washed three times with 1 liter of 0.1M NaCl, 20 mM Tris pH 7.5 (TBS), 5 mM EDTA, 5 mM benzamidine. The pellets are then resuspended in a minimum amount of wash buffer and made 1 mM in DIFP, then frozen in 50 mL screwtop tubes at -80° C. The frozen platelets are thawed and resuspended in 50 mL TBS, 5 mM benzamidine, 5 mM EDTA pH 7.5, […]. The suspension is frozen and thawed two times in a dry ice-acetone bath using a 600 mL lyophilizing flask, then homogenized in a glass/teflon mortar and pestle and made 1 mM in DIFP. The NaCl concentration is adjusted to 0.5M with a stock solution of 4M NaCl. After stirring the suspension at 4° C., it is centrifuged in polycarbonate tubes at 33,000 rpm for 60 minutes at 4° C. The supernatant (0.5M NaCl wash) is removed and saved; this supernatant contains the soluble form of P-selectin. Care is taken not to remove the top part of the pellet with the supernatant. The pellets are then homogenized in extraction buffer (TBS, 5 mM benzamidine, 5 mM EDTA, pH 7.5, 100 μM leupeptin, 2% Triton X-100). After centrifugation at 19,500 rpm for 25 minutes at 4° C., the supernatant is removed. The extraction procedure is repeated with the pellet and the supernatant is combined with the first supernatant. The combined extracts, which contain the membrane form of P-selectin, are adjusted to 0.5M NaCl. The soluble fraction (0.5M NaCl wash) and the membrane extract (also adjusted to 0.5M NaCl) are absorbed with separate pools of the monoclonal antibody S12 (directed to P-selectin) previously coupled to Affigel (Biorad) at 5 mg/mL for 2 hours at 4° C. After letting the resins settle, the supernatants are removed. The S12 Affigel containing bound GMP-140 is then loaded into a column and washed overnight at 4° C. with 400 mL of 0.5M NaCl, 20 mM Tris pH 7.5, 0.01% Lubrol PX. Bound P-selectin is eluted from the S12 Affigel with 100 mL of 80% ethylene glycol, 1 mM MES pH 6.0, 0.01% Lubrol PX. Peak fractions with absorbance at 280 nm are pooled. Eluates are dialyzed against TBS with 0.05% Lubrol, then applied to a Mono Q column (FPLC from Pharmacia). The concentrated protein is step eluted with 2M NaCl, 20 mM Tris pH 7.5 (plus 0.05% Lubrol PX for the membrane fraction). Peak fractions are dialyzed into TBS pH 7.5 (plus 0.05% Lubrol PX for the membrane fraction). P-selectin is plated at 5 micrograms/mL and the control proteins: human serum albumin (Alb), platelet glycoprotein IIb/IIIa (IIb), von Willsbrand factor (vWF), fibrinogen (FIB), thrombomodulin (TM), gelatin (GEL) or human serum (HS), are added at 50 micrograms/mL. […]

IC50 | Compound
78 µM | CC(C)C[C@@H]1NC(=O)[C@H](C)NC(=O)[C@H](CC(C)C)NC(=O)[C@H](CCCCN)NC(=O)[C@H](CCCCN)NC(=O)[C@H](CCCCN)NC(=O)[C@H](CO)NC(=O)[C@@H](N)CSSC[C@@H](C(=O)N[C@@H](Cc2ccc(O)cc2)C(N)=O)NC1=O [SEQ ID NO: 5] (H-CSKKKLALCY-NH2; disulfide 1-9)
8 µM | SKRRLALCY-NH2 [SEQ ID NO: 58, SKRRLALCY--NH2]
37 µM | SKFKLALCY-NH2 [SEQ ID NO: 20, SKFKLALCY--NH2]
55 µM | HKKKLALCY-NH2 [SEQ ID NO: 10, HKKKLALCY--NH2]
192 µM | Ac-SKKKAALCY-NH2 [SEQ ID NO: 23, Ac-SKKKAALCY--NH2]
897 µM | SKKKLAPCY-NH2 [SEQ ID NO: 42, SKKKLAPCY--NH2]
9 µM | Ac-SKKKLALCY-NH2 [SEQ ID NO: 49, Ac-SKKKLALCY--NH2]
128 µM | Ac-SKKKLALIY-NH2 [SEQ ID NO: 34, Ac-SKKKLALIY--NH2]
195 µM | SKKQLALCY-NH2 [SEQ ID NO: 48, SKKQLALCY--NH2]
17 µM | Ac-SRKKLALCY-NH2 [SEQ ID NO: 63, Ac-SRKKLALCY--NH2]
60 µM | Ac-SKAKLALCY-NH2 [SEQ ID NO: 19, Ac-SKAKLALCY--NH2]
626 µM | CC(C)C[C@@H]1NC(=O)[C@H](C)NC(=O)[C@H](Cc2c[nH]cn2)NC(=O)[C@H](CCCCN)NC(=O)[C@H](CCCCN)NC(=O)[C@H](CCCCN)NC(=O)[C@H](CC(C)C)NC(=O)[C@@H](N)CSSC[C@@H](C(=O)N[C@@H](Cc2ccc(O)cc2)C(N)=O)NC1=O [SEQ ID NO: 4, Cyclo-(cystinyl-leucyl-lysyl-lysyl-lysyl-histidyl-alanyl-leucyl-cystinyl)-tyrosine-amide] (H-CLKKKHALCY-NH2; disulfide 1-9)
47 µM | Ac-SRARLALCY-NH2 [SEQ ID NO: 61, Ac-SRARLALCY--NH2]
362 µM | SHKKLALCY-NH2 [SEQ ID NO: 18, SHKKLALCY--NH2]
888 µM | SKHKLALCY-NH2 [SEQ ID NO: 21, SKHKLALCY--NH2]
26 µM | Ac-SKRKRALCY-NH2 [SEQ ID NO: 55, Ac-SKRKRALCY--NH2]
82 µM | Ac-SKKKTALCY-NH2 [SEQ ID NO: 47, Ac-SKKKTALCY--NH2]
65 µM | LKKKLALCY-NH2 [SEQ ID NO: 13, LKKKLALCY--NH2]
18 µM | Ac-SRKRLALCY-NH2 [SEQ ID NO: 65, Ac-SRKRLALCY--NH2]
632 µM | SKRRLALSY-NH2 [SEQ ID NO: 59, SKRRLALSY--NH2]
